Results taken from the NIST ThermoML archive (doi:10.1021/je800664z).

Key:
[1] = refractive index (Na D-line) (dimensionless); details: 101.33 kPa, Liquid, Standard Abbe refractometry
[2] = for surface tension liquid-gas: Capillary rise; for mass density / viscosity: 101 kPa, Liquid
[3] = xn = mol fraction of the nth substance listed; details: x2 = 0; for surface tension liquid-gas: Capillary rise; for mass density / viscosity: 101 kPa, Liquid
[4] = refractive index (Na D-line) (dimensionless); xn = mol fraction of the nth substance listed; details: 101 kPa, Liquid, Standard Abbe refractometry, x2 = 0

C1COCO1 [1,3-dioxolane]
Details	mass density, [2] [kg/m3]	refractive index, [1]	surface tension liquid-gas, [2] [mN/m]	viscosity, [2] [mPa·s]
288.15 K	1071.24	1.40252	34.37	0.667
298.15 K	1059.29	1.39795	32.55	0.596
308.15 K	1046.85	1.39322	30.67	0.535

CC(C)CC(C)(C)C [2,2,4-trimethylpentane]
Details	mass density, [2] [kg/m3]	refractive index, [1]	surface tension liquid-gas, [2] [mN/m]	viscosity, [2] [mPa·s]
288.15 K	696.1	1.39408	19.18	0.537
298.15 K	687.95	1.38916	18.33	0.481
308.15 K	679.62	1.38497	17.35	0.434

CC(C)CC(C)(C)C [2,2,4-trimethylpentane] + C1COCO1
Details	mass density, [3] [kg/m3]	refractive index, [4]	surface tension liquid-gas, [3] [mN/m]	viscosity, [3] [mPa·s]
288.15 K	696.1	1.39408	19.18	0.537
298.15 K	687.95	1.38916	18.33	0.481
308.15 K	679.62	1.38497	17.35	0.434

CC(C)O [propan-2-ol]
Details	mass density, [2] [kg/m3]	refractive index, [1]	surface tension liquid-gas, [2] [mN/m]	viscosity, [2] [mPa·s]
288.15 K	789.53	1.37933	21.75	2.849
298.15 K	781.16	1.37515	20.9	2.043
308.15 K	772.52	1.37061	20.17	1.541

CC(C)O [propan-2-ol] + C1COCO1
Details	mass density, [3] [kg/m3]	refractive index, [4]	surface tension liquid-gas, [3] [mN/m]	viscosity, [3] [mPa·s]
288.15 K	789.53	1.37933	21.75	2.849
298.15 K	781.16	1.37515	20.9	2.043
308.15 K	772.52	1.37061	20.17	1.541
